{"source": "patent US20250387420A1", "about": "“Prevention of Nausea and Vomiting from Antibody-Drug Conjugates and other Long-Acting Emetogenics” (Helsinn Healthcare SA, priority 2024, published 2025)", "origin": "cited, not measured here", "key": {"[1]": {"target": "NK1 receptor (Homo sapiens, UniProt P25103)", "sequence (P25103 whole entry)": "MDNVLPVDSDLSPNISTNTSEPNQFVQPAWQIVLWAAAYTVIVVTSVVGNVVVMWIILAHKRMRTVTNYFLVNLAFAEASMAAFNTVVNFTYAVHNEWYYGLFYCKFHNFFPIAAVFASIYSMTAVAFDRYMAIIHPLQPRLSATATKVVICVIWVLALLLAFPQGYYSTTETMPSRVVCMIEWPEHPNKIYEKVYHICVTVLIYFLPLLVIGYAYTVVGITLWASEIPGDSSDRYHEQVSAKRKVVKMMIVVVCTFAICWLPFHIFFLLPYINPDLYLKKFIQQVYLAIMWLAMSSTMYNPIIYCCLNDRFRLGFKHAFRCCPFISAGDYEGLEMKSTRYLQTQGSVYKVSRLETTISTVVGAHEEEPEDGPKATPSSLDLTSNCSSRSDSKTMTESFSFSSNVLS"}, "[2]": {"tested_on": "patients receiving cisplatin-based chemotherapy", "conditions": "168 hours following highly emetogenic cisplatin-based therapy"}, "[3]": {"conditions": "48 hours after a single 300 mg oral netupitant dose; Gilmore and Bernareggi 2019"}}}
{"smiles": "C[C@@H](O[C@H]1OCCN(Cc2n[nH]c(=O)[nH]2)[C@H]1c1ccc(F)cc1)c1cc(C(F)(F)F)cc(C(F)(F)F)c1", "note": "[aprepitant]", "values": [{"measurement": "NK1 receptor occupancy rates necessary for efficacy", "setting": "[1]; Bergstrom et al. 2004", "result": "> 90", "unit": "%"}]}
{"smiles": "Cc1ccccc1-c1cc(N2CCN(C)CC2)ncc1N(C)C(=O)C(C)(C)c1cc(C(F)(F)F)cc(C(F)(F)F)c1", "note": "[netupitant]", "values": [{"measurement": "comparative efficacy versus aprepitant", "setting": "[2]", "result": "favorable comparative efficacy to aprepitant"}, {"measurement": "plasma concentration at which 90% receptor occupancy is achieved", "setting": "[1]; Spinelli et al. 2013", "result": 225, "unit": "ng/mL"}, {"measurement": "plasma concentration", "setting": "[3]", "result": "below 100 ng/mL"}]}
